Experimental data published in patent US9487462B2, “Inhibitors of matrix metalloproteinases” (PharmaHungary 2000 Kft., priority 2010, dated 2016).
Like-named read-outs stand apart in the source and are kept apart here.

Columns and labels:
[1] = test system: neonatal rat cardiac myocytes; test: Cytoprotective effect in cardiac myocytes subjected to hypoxia and reoxygenation; assay type: cell-based
Outline: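 Day-3 neonatal rat cardiomyocytes subjected to 4 h simulated ischemia (95% N2/5% CO2, hypoxic solution, 37 °C) or normoxia, then reoxygenation. MMP inhibitors at EC5, EC10, EC20 and EC50 (DMSO vehicle; ilomastat 0.5 µM control) present throughout; viability by calcein-AM relative to digitonin/propidium iodide total cell count.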

[2] = target: MMP-2 (Rattus norvegicus (Rat), UniProt P33436); test: In vitro zymography assay (gelatin), MMP-2; assay type: biochemical
Sequence of MMP-2 (P33436 110-662): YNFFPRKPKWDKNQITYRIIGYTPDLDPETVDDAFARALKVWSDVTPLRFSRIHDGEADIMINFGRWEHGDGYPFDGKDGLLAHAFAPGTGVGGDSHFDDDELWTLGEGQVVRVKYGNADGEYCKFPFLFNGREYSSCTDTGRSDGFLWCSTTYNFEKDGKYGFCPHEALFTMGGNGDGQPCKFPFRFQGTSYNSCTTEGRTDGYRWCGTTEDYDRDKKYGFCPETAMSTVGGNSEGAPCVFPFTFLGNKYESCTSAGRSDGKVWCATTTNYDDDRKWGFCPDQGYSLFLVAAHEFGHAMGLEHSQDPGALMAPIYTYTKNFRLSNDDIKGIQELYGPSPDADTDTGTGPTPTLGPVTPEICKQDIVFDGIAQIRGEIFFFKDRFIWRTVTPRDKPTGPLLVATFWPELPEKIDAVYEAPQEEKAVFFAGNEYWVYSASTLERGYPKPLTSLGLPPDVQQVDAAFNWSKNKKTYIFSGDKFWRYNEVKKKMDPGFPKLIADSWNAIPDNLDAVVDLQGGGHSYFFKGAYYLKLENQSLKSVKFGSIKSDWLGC
Procedure: (§1) MMP-2 and MMP-9 enzymes were isolated from rat hearts and from rat spleen while human, recombinant MMP-1 and MMP-13 enzymes used were commercial. MMP-2, -9, -13 enzymes were separated by electrophoresis during non-reducing conditions on 8% SDS-polyacrylamide gels copolymerized with 2 mg/ml gelatin from porcine skin (Sigma Aldrich) while MMP-1 was separated under the same conditions on 8% SDS-polyacrylamide gels copolymerized with 2 mg/ml casein (Sigma Aldrich). […] In case of MMP-13 p-aminophenylmercuric acetate (APMA) was used for enzyme activation at 37° C. for 30 min. After electrophoresis, gels were washed in 2.5% Triton-X 100 with agitation and then incubated for 20 hrs at 37° C. in enzyme incubation buffer (50 mM Tris-HCl, pH 7.5, containing 5 mM CaCl2, 200 mM NaCl) with or without MMP inhibitor. Zymographic gels were stained in Coomassie Brilliant Blue R-250 and de-stained. Gelatin and casein zymograms were scanned. MMP activity is detected as a white zone on a blue background and the clear bands in the gel can be quantified by densitometry. The obtained density values were measured and % inhibition values calculated (Kupai et al., 2010). The table below summarizes the prescreen inhibition values determined for different MMP inhibitors on MMP1, -2, -9, -13.

[3] = target: T1, MMP13 (Homo sapiens (Human), UniProt P45452); test: In vitro zymography assay (gelatin), MMP-13; assay type: biochemical; conditions: % ± SD
Procedure: as §1

[4] = target: MMP1 (Homo sapiens (Human), UniProt P03956); test: MMP activity assay (fluorogenic substrate), MMP1; assay type: biochemical
Sequence of MMP1 (P03956 100-469, species assumed): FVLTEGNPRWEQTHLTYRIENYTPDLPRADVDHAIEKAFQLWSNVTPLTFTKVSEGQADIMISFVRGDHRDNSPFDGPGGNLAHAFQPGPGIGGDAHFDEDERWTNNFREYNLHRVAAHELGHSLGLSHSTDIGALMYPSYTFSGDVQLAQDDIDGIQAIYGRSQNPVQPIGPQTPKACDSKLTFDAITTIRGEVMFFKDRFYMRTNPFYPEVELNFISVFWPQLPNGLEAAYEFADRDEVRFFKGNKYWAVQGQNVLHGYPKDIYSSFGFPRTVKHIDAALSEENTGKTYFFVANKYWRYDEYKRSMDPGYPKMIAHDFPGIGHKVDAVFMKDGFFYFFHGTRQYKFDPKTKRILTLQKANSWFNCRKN

[5] = target: T1, MMP13; test: MMP activity assay (fluorogenic substrate), MMP13 catalytic domain; assay type: biochemical; conditions: Table 2; read-out: MMP13 IC50

inhibition at 1 µM ([2]; 1 μM, % ± SD, read-out: % inhibition MMP-2 (72 kDa)): 100%
inhibition at 100 µM ([2]; 100 μM, % ± SD, read-out: % inhibition MMP-2 (72 kDa)): 100%
selectivity in the inhibition of different MMP isoenzymes ([2]; summary in words, MMP1, MMP2, MMP9, MMP13): highly selective for MMP2
IC50 ([2]; zymography, Table 8, read-out: IC50 on MMP-2): 11.2 µM
inhibition at 1 µM ([3]; 1 μM, read-out: % inhibition MMP-13 (50 kDa)): 54.4 ± 2.33%
% inhibition MMP-13 (50 kDa) ([3]; 100 μM): No inhibition
IC50 ([4]; Table 2, read-out: MM1 IC50): 51 µM
IC50 ([4]; read-out: IC50 on MMP1): 46 µM
IC50 [5]: 2.5 µM
Structure (SMILES): O=C(O)c1csc(CN(Cc2ccc(F)cc2)Cc2ccc(OCc3cccnc3)cc2)n1 [Compound 1, 2-({[(4-Fluorophenyl)methyl]({[4-(pyridin-3-ylmethoxy)phenyl]methyl})amino}methyl)-1,3-thiazole-4-carboxylic acid]
Cytoprotective effect, % cell survival as compared to vehicle DMSO ([1]; normoxia, EC5 concentration 2.6 microM): 120 ± 2 %
Cytoprotective effect, % cell survival as compared to vehicle DMSO ([1]; normoxia, EC10 concentration 6.3 microM): 99 ± 2%
Cytoprotective effect, % cell survival as compared to vehicle DMSO ([1]; normoxia, EC20 concentration 10.4 microM): 94 ± 2%
Cytoprotective effect, % cell survival as compared to vehicle DMSO ([1]; normoxia, EC50 concentration 17.7 microM): 86 ± 2 %
Cytoprotective effect, % cell survival as compared to vehicle DMSO ([1]; simulated ischemia, EC5 concentration 2.6 microM): 125 ± 6 %
Cytoprotective effect, % cell survival as compared to vehicle DMSO ([1]; simulated ischemia, EC10 concentration 6.3 microM): 109 ± 2%
Cytoprotective effect, % cell survival as compared to vehicle DMSO ([1]; simulated ischemia, EC20 concentration 10.4 microM): 106 ± 2%
Cytoprotective effect, % cell survival as compared to vehicle DMSO ([1]; simulated ischemia, EC50 concentration 17.7 microM): 97 ± 2%
